Laboratory results from paper PMC11477209, “Toxicological Evaluation of Kaempferol and Linearolactone as Treatments for Amoebic Liver Abscess Development in Mesocricetus auratus” (International Journal of Molecular Sciences, 2024).
pIC50: −log10 of the molar value. Converted amounts (≈) assume the structure as drawn.

Legend:
[1] = test system: E. histolytica trophozoites (virulent HM-1 strain); conditions: 48 h
[2] = test system: E. histolytica trophozoites (virulent HM-1 strain); experiment: microbe, parasite or virus in culture; conditions: Entamoeba histolytica, 48 h, read-out: IC50 HM-1, 48 h, flow cytometry
[3] = in vivo
Description: After blood samples were obtained, the hamsters were sacrificed with a lethal dose of sodium pentobarbital, followed by a cervical fracture. They were mounted on a dissecting board for the necropsy. A complete mid-laparotomy was performed to remove the lungs, spleen, heart, liver, and kidneys. An excisional biopsy was performed to recover the ALA lesions for morphometric analysis. The organs and ALA lesions were rinsed with 1× PBS, weighed, and adherent tissue was removed. […] Later, the inclusion protocol was performed to obtain histological sections (3 μm thick) with a rotatory microtome (RM2125-RTS, Leica; Wetzlar, Germany). Tissue slices were stained with hematoxylin-eosin (Merck; Rahway, NJ, USA), mounted on coverslips with Entellan^TM-New (Merck; Rahway, NJ, USA), and observed with optical microscopy (Eclipse 80i, Nikon; Tokio, Japan).

[4] = test system: E. histolytica trophozoites; conditions: 48 h; ref [12],[13]; read-out: IC50 E. histolytica trophozoites (antiproliferative activity); cited from earlier work
[5] = ALA hamsters
[6] = test system: CHO-K1 cells; experiment: MTT cytotoxicity assay; assay type: cell-based, Chinese hamster; conditions: 24 h, MTT
[7] = Paraclinical analysis (serum biochemistry, hematic biometry) in ALA hamsters; assay type: in vivo, Mesocricetus auratus; set-up: BUN: unit not given here
Description: Serum was obtained by centrifugation at 3500 rpm and frozen at −70 °C until analysis. Hematic biometry was performed in a hematology autoanalyzer system (BC-2300, Mindray; Shenzhen, China), and biochemical parameters were made on an automatic medical system (Prestige 24i, Tokyo Boeki; Kanagawa, Japan).

[8] = test system: E. histolytica trophozoites; experiment: Cell morphology by confocal microscopy (actin); assay type: cell-based, Entamoeba histolytica; conditions: phalloidin-rhodamine, treatment with IC50
Description: Then, the culture medium was removed, and the adhered cells were fixed with 4% paraformaldehyde for 1 h at 37 °C. The samples were washed three times with 1× PBS and incubated with 1:50 phalloidin–rhodamine (R415, Invitrogen; Carlsbad, CA, USA) for 1 h at 37 °C. Finally, the cells were washed, mounted with VectaShield/DAPI medium (Vector Laboratories; Newark, CA, USA), and observed with a confocal microscope (LSM-700, Zeiss; Oberkochen, Germany).

[9] = MTZ 0.16, KP 31.6, LL 15.6 μg/mL
[10] = blood, ALA hamsters, i.p. 4 days
[11] = serum, ALA hamsters, i.p. 4 days

In the case of `C[C@]12C[C@H](c3ccoc3)OC(=O)[C@H]1CCC13COC(=O)C1=CC=C[C@H]32` (stereo partly drawn) [LL, (4S,7R,9R,10S)-7-(furan-3-yl)-9-methyl-6,16-dioxatetracyclo[8.7.0.01,14.04,9]heptadeca-11,13-diene-5,15-dione], the “biological activity symbol on IC50 HM-1” value [1] was “+”, the “IC50 HM-1” value ([1]; flow cytometry) was < 7.8 µg/mL and the apoptotic trophozoites [1, 9] was 4.3%. For the same molecule, the necrotic trophozoites [1, 9] was 90.1%, the “decrease of size and granularity of the cell population” value ([1]; MTZ 0.16, KP 31.6, LL 15.6 μg/mL, vs Vh) was 66% and the IC50 [2] was 7.8 µg/mL (≈ 22.9 µM). The Heart largest diameter [3] was 1.1 ± 0.07 cm, the Heart weight [3] was 0.38 ± 0.08 g and the Kidneys largest diameter [3] was 1.1 ± 0.08 cm. The Kidneys weight [3] was 0.49 ± 0.07 g, the Liver largest diameter [3] was 3.94 ± 0.16 cm and the Liver weight [3] was 5.5 ± 0.9 g. The Lungs largest diameter [3] was 2.4 ± 0.1 cm, the Lungs weight [3] was 0.74 ± 0.06 g and the Spleen largest diameter [3] was 3.4 ± 0.4 cm. The Spleen weight [3] was 0.26 ± 0.05 g, the pIC50 [4] was 4.64 and the “change in body weight compared with the control (disease-free) group” value [5] was −0.21%. The Hamster weight ([5]; i.p. 4 days) was 93.4 ± 7.2 g, the Survival rate ([5]; i.p. 4 days) was 100% and the Toxicity signs ([5]; i.p. 4 days) was “None”. For the same molecule, the “biological activity symbol on IC50 CHO-K1” value [6] was “-”, the IC50 ([6]; Cricetulus griseus, CHO-K1, read-out: IC50 CHO-K1) was 300 µg/mL (≈ 881 µM) and the AL/GGT ratio ([7]; ALA prognosis ratio) was 0.23 ± 0.038. The Erythrocytes [7, 10] was 6.7 ± 0.4 x10 6/mm3, the Hematocrit [7, 10] was 45.4 ± 2.9% and the Hemoglobin [7, 10] was 16 ± 0.8 g/dL. For the same molecule, the Leukocytes [7, 10] was 7.1 ± 1.8 x100/mm3, the MCH [7, 10] was 24 ± 0.3 pg and the MCHC [7, 10] was 35 ± 0.9 g/dL. It also gave an MCV [7, 10] of 68 ± 2.2 fL, an MPV [7, 10] of 7.7 ± 0.5 fL and a PCT [7, 10] of 0.2 ± 0.0%. For the same molecule, the PDW [7, 10] was 9.4 ± 0.3 fL, the Platelets [7, 10] was 303 ± 31 x106/μL and the RDW-CV [7, 10] was 14.7 ± 0.6 fL. For the same molecule, the RDW-SD [7, 10] was 40 ± 2.3 fL, the TB/AL ratio ([7]; drug toxicity ratio) was 0.22 ± 0.005 and the neutrophil/lymphocyte ratio ([7]; hematic ratio) was 1.66 ± 1.26. The BUN/CR ratio ([7]; kidney damage ratio) was 31.6 ± 9.8, the urea/CR ratio ([7]; kidney damage ratio) was 73.1 ± 26 and the ALP/TB ratio ([7]; liver injury ratio) was 10.85 ± 1.28. For the same molecule, the ALT/ALP ratio ([7]; liver injury ratio) was 0.25 ± 0.05, the “AST/ALT ratio (De Ritis ratio)” value ([7]; liver injury ratio) was > 1 and the Band neutrophils ([7]; manual differential analysis) was 0%. It also gave a Basophils ([7]; manual differential analysis) of 0%, an Eosinophils ([7]; manual differential analysis) of 0% and an Immature forms ([7]; manual differential analysis) of 0%. It also gave a Lymphocytes ([7]; manual differential analysis) of 44 ± 21%, a Monocytes ([7]; manual differential analysis) of 0% and a Segmented neutrophils ([7]; manual differential analysis) of 56 ± 21%. For the same molecule, the “ALT (GPT)” value [7, 11] was 89 ± 16 U/L, the “AST (GOT)” value [7, 11] was 163 ± 22 U/L and the Albumin [7, 11] was 1.7 ± 0.1 g/dL. The Alkaline phosphatase [7, 11] was 355 ± 9.5 U/L, the BUN [7, 11] was 16.1 ± 1.5 and the Cholesterol [7, 11] was 105 ± 24 mg/dL. For the same molecule, the Creatinine [7, 11] was 0.54 ± 0.2 mg/dL, the Direct bilirubin [7, 11] was 0.26 ± 0.04 mg/dL and the GGT [7, 11] was 7.5 ± 2.1 U/L. For the same molecule, the Glucose [7, 11] was 123 ± 20 mg/dL, the Indirect bilirubin [7, 11] was 0.12 ± 0.0 mg/dL and the Total bilirubin [7, 11] was 0.37 ± 0.04 mg/dL. The Total protein [7, 11] was 5.3 ± 0.3 g/dL, the Triglycerides [7, 11] was 132 ± 8.7 mg/dL and the Urea [7, 11] was 37 ± 6.01 mg/dL. For the same molecule, the actin cytoskeleton alteration [8] was “reduction in polymerized actin”.
